Data from patent US12037344B2, “NLRP3 modulators” (INNATE TUMOR IMMUNITY, INC., priority 2018, dated 2024).
Read-outs that look alike come from different tables or passages of the source.

Key:
THP-1 cells = experiment: Measurement of IL-1β production, hTRF protocol (second alternative procedure), THP-1 cells; format: cell-based, human; conditions: read-out: NLRP3 hILIB EC50
Method in brief: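 THP-1 cells differentiated overnight with 50 ng/ml PMA, then plated at 50,000 cells/well in RPMI with 2% FBS onto serial compound dilutions (top final concentration 10 μM) for 2 hours at 37° C. Supernatant IL-1β measured by hTRF (antibodies at 1:40, overnight at 4° C), read at 665/615 nm against a standard curve.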

TLR7 = biological target: T1, TLR7 (Homo sapiens, UniProt Q9NYK1); experiment: In vitro human TLR7 binding reporter assay (HEK-Blue, NF-kB/AP1-inducible SEAP); format: cell-based; conditions: read-out: TLR7 Agonist EC50
T1 construct: human HEK-Blue cells co-expressing a TLR7 or TLR8 gene
T1 sequence (Q9NYK1 27-1049): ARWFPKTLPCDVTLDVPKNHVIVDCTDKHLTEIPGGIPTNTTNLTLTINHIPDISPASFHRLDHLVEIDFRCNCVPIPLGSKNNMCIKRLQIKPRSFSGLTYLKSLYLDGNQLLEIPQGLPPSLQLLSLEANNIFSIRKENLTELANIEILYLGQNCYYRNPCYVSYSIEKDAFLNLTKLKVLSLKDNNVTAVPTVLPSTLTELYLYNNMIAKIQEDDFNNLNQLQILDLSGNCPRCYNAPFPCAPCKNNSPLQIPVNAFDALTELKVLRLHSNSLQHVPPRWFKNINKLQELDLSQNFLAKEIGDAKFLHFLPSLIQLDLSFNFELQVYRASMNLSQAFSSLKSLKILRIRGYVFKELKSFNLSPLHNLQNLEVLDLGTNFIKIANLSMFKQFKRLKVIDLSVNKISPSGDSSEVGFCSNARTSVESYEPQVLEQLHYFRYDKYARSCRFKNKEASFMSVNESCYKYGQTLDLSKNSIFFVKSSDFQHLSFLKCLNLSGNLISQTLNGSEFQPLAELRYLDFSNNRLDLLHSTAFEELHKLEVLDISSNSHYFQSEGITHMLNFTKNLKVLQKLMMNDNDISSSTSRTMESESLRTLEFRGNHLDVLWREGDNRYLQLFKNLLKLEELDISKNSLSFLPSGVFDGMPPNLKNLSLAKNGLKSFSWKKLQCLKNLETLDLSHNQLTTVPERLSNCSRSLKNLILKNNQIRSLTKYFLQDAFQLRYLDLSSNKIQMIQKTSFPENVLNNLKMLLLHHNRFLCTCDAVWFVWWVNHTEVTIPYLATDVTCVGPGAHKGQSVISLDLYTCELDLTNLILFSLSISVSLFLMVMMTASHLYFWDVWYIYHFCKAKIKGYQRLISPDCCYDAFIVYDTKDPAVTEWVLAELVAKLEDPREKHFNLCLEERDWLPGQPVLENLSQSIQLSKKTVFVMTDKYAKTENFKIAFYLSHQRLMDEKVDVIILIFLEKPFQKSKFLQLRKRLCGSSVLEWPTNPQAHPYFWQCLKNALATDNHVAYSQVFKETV
Method in brief: (§1)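 EC50s come from NF-kB/AP1-driven SEAP secretion in HEK-Blue cells expressing TLR7 or TLR8, measured with Quanti-Blue after an 18 h compound incubation. Maximal response is defined by a 50 μM reference standard.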

TLR8 = biological target: T2, TLR8 (Homo sapiens, UniProt Q9NR97); experiment: In vitro human TLR8 binding reporter assay (HEK-Blue, NF-kB/AP1-inducible SEAP); format: cell-based; conditions: read-out: TLR8 Agonist EC50
T2 construct: human HEK-Blue cells co-expressing a TLR7 or TLR8 gene
T2 sequence (Q9NR97 27-1041): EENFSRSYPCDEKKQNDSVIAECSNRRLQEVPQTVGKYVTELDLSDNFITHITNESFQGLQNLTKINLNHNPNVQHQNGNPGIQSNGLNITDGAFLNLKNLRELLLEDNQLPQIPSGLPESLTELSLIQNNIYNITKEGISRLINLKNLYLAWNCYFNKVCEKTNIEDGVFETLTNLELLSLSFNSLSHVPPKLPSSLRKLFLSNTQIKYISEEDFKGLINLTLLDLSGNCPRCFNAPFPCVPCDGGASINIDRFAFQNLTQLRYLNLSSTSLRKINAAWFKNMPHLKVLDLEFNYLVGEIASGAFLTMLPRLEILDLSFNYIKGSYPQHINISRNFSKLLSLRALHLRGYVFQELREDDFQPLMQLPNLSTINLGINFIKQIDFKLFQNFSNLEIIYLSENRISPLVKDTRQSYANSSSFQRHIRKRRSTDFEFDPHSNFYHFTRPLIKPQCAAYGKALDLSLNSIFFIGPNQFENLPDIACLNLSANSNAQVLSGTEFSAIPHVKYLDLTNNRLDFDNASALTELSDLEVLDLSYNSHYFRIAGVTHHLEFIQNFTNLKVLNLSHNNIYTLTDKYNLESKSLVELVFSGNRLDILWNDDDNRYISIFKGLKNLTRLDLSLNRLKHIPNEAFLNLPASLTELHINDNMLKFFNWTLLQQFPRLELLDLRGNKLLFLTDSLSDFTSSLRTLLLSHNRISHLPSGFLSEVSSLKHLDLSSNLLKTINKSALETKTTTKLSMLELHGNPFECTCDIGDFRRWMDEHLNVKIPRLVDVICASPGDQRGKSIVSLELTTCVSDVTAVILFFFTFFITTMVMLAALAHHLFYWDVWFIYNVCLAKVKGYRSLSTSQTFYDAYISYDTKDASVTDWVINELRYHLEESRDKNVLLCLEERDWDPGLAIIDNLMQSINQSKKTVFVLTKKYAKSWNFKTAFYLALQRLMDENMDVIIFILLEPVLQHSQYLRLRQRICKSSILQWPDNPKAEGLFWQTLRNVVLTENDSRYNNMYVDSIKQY
Method in brief: as §1

[1] = Homo sapiens, THP-1, IL-1β production, human cells
[2] = Homo sapiens, THP-1, IL-1β production, human

EC50 (THP-1 cells; [1]) | EC50 (TLR7; activity range) | EC50 (TLR8; activity range) | EC50 (THP-1 cells; [2]) | EC50 (TLR7; activity range class) | EC50 (TLR8; activity range class) | EC50 (THP-1 cells; IL-1β production, human) | SMILES
0.53 µM | > 100 µM | > 100 µM | – | – | – | – | CC(C)(O)Cn1cc2c(n1)c(N)nc1cc(-c3ccn[nH]3)ccc12 [Example 450]
0.4 µM | > 100 µM | > 100 µM | – | – | – | – | CC(C)(O)CCn1cc2c(n1)c(N)nc1cc(-c3ccn[nH]3)ccc12 [Example 452]
– | – | – | 6.57 µM | > 100 µM | > 100 µM | – | Nc1nc2cc(-c3cc[nH]n3)ccc2c2nn(CC3(O)CCOCC3)cc12 [Example 320]
– | – | – | 4.12 µM | > 100 µM | > 100 µM | – | CC(C)(C)OCC(O)Cn1cc2c(N)nc3cc(-c4cc[nH]n4)ccc3c2n1 (stereo not drawn) [Example 375]
– | – | – | 10.9 µM | > 100 µM | > 100 µM | – | Nc1nc2cc(-c3ccn[nH]3)ccc2c2nn(CC3COCCN3)cc12 (stereo not drawn) [Example 255]
– | – | – | 1.38 µM | > 100 µM | > 100 µM | – | Nc1nc2cc(-c3cc[nH]n3)ccc2c2nn(CCN3CCCC3=O)cc12 [Example 383]
– | – | – | 0.22 µM | > 100 µM | > 100 µM | – | CC(C)n1cc2c(N)nc3cc(-c4cc[nH]n4)ccc3c2n1 [Example 326]
0.66 µM | > 100 µM | > 100 µM | – | – | – | – | CC(=O)NCc1cc2c(N)nc3cc(-n4cccn4)ccc3c2[nH]1 [Example 445]
1.33 µM | > 100 µM | > 100 µM | – | – | – | – | CCn1c(CN)cc2c(N)nc3cc(-c4ccn[nH]4)ccc3c21 [Example 441]
0.16 µM | > 100 µM | > 100 µM | – | – | – | – | Nc1nc2cc(-c3cc[nH]n3)ccc2c2n[nH]cc12 [Example 457, 7-(1H-pyrazol-3-yl)-2H-pyrazolo[4,3-c]quinolin-4-amine]
0.71 µM | > 100 µM | > 100 µM | – | – | – | – | CC(C)NC(=O)Cn1cc2c(n1)c(N)nc1cc(-c3cc[nH]n3)ccc12 [Example 534]
– | – | – | 0.89 µM | > 100 µM | > 100 µM | – | CC(=O)N[C@@H](CO)Cn1cc2c(N)nc3cc(-c4cc[nH]n4)ccc3c2n1 [Example 292]
– | – | – | 8.34 µM | > 100 µM | > 100 µM | – | Nc1nc2cc(-c3cc[nH]n3)ccc2c2cn(CCCNC(=O)c3ccc(F)cn3)nc12 [Example 125]
– | – | – | 0.74 µM | > 100 µM | > 100 µM | – | N#CC[C@@H](O)Cn1cc2c(N)nc3cc(-c4cc[nH]n4)ccc3c2n1 [Example 381]
– | – | – | 0.07 µM | > 100 µM | > 100 µM | – | Nc1nc2cc(-c3cc[nH]n3)ccc2c2nn(CCNC(=O)c3ccccn3)cc12 [Example 150, N-{2-[4-amino-7-(1H-pyrazol-3-yl)-2H-pyrazolo[4,3-c]quinolin-2-yl]ethyl}pyridine-2-carboxamide]
2.8 µM | > 100 µM | > 100 µM | – | – | – | – | Nc1nc2cc(-c3cc[nH]n3)ccc2c2[nH]c(CCNC(=O)C3CCCO3)cc12 (stereo not drawn) [Example 414]
– | – | – | 0.08 µM | 20 to 100 µM | 20 to 100 µM | – | Nc1nc2cc(-c3cc[nH]n3)ccc2c2cn(CCNC(=O)c3cccc(C(F)(F)F)n3)nc12 [Example 90]
– | – | – | 0.64 µM | > 100 µM | > 100 µM | – | Nc1nc2cc(-c3cc[nH]n3)ccc2c2cn(CCNC(=O)c3ccncn3)nc12 [Example 75]
– | – | – | 1.88 µM | > 100 µM | > 100 µM | – | Nc1nc2cc(-c3cc[nH]n3)ccc2c2nn(C[C@@H](O)CO)cc12 [Example 365]
– | – | – | – | > 100 µM | > 100 µM | 0.72 µM | Nc1nc2cc(-c3cc[nH]n3)ccc2c2nn(C3CCOC3)cc12 (single isomer, unassigned) [Example 238]
0.65 µM | > 100 µM | > 100 µM | – | – | – | – | Nc1nc2cc(-c3cc[nH]n3)ccc2c2nn(CCO)cc12 [Example 396]
